From PubChem BioAssay (NCI) come the findings set out here.

Test systems include SR leukemia; SF-539 CNS; SF-295 CNS; HCC-2998 colon; ACHN renal; T-47D breast; MDA-MB-231 breast; MCF7 breast; SNB-75 CNS; BT-549 breast.
Common to all, as to assay: NCI anticancer screen, dose series, 48 h

“And” between values parts separate entries of the source, which are not always exact repeats. Identical values can stand only once.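 In this assay, cells in 96-well plates receive the compound at five concentrations for 48 hours. Endpoints are linearly interpolated between the surrounding concentrations. GI50 = concentration required for 50% inhibition of growth. At the TGI there is no net growth.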 A value given as a limit tells only on which side of the number the result lay.

Turning to `Nc1nc(SCc2ccccc2Cl)c2[nH]cnc2n1`, the TGI in the test with SR leukemia, in the test with SF-539 CNS, in the test with SF-295 CNS, in the test with HCC-2998 colon and with ACHN renal was greater than 100 µM throughout.
Turning to `CCC(=O)OCN(C)c1nc(N(C)COC(=O)CC)nc(N(C)COC(=O)CC)n1`, the TGI with SR leukemia is 71 µM; in the test with SF-295 CNS it was greater than 100 µM; with T-47D breast, greater than 100 µM; in the test on MDA-MB-231 breast it was greater than 100 µM; in the test with HCC-2998 colon it was 68.6 µM; in the test on MCF7 breast, greater than 100 µM. For the same compound, the TGI in the test on SNB-75 CNS and with BT-549 breast was greater than 100 µM each time.
In the case of `Cc1c2ccc3ccccc3c2c[n+]2ccccc12`, the TGI in the test on SR leukemia was 53.5 µM; with SF-539 CNS it was 43.4 µM; with SF-295 CNS, 24.8 µM; in the test with T-47D breast, 5.09 µM; with MDA-MB-231 breast, greater than 82.3 µM; with HCC-2998 colon, 17.7 µM. Besides, the TGI is greater than 100 µM in the test on ACHN renal, greater than 87.3 µM with MCF7 breast, 14.3 µM in the test on SNB-75 CNS and 14.3 µM with BT-549 breast.
As for `CCCC(=O)[O-].CCCC(=O)[O-].NCCN.NCCN.[Co+3].[O-][Cl+3]([O-])([O-])[O-]`, the TGI with SF-539 CNS, in the test on SF-295 CNS, with HCC-2998 colon, in the test on ACHN renal and with SNB-75 CNS was greater than 100 µM each time.
For the compound `CCCO[C@@H]1[C@@H](OC(C)=O)[C@@H](OC(C)=O)C(C)(C)/C=C/[C@H](C)C(=O)[C@@]2(OC(C)=O)C[C@@](C)(OC(C)=O)[C@H](OC(C)=O)[C@@H]2[C@H]2OC(=O)CC[C@@]12OC(=O)c1ccccc1`, the TGI in the test with SF-539 CNS, in the test with SF-295 CNS, in the test on T-47D breast, with MDA-MB-231 breast, in the test on HCC-2998 colon and in the test with ACHN renal was greater than 25 µM each time. The TGI with MCF7 breast, with SNB-75 CNS and in the test on BT-549 breast was greater than 25 µM throughout.
As for `CNC(C)C(O)c1ccc2oc3cc(=O)c4ccccc4c-3nc2c1` (centres undefined), the TGI in the test on SF-539 CNS was 5.99 µM; in the test on SF-295 CNS it was 15.6 µM; with T-47D breast it was 98.4 µM; in the test on MDA-MB-231 breast, greater than 100 µM; with HCC-2998 colon, greater than 100 µM; in the test on ACHN renal it was 57.9 µM. Moreover, the TGI in the test with MCF7 breast was 41.7 µM; with BT-549 breast, greater than 100 µM.
As to `N[C@H](Cc1ccc2oc3cc(=O)c4ccccc4c-3nc2c1)C(=O)O`, the TGI in the test with SR leukemia, with SF-539 CNS, in the test with SF-295 CNS, in the test with T-47D breast, with MDA-MB-231 breast and in the test with ACHN renal was greater than 100 µM in each case. For the same compound, the TGI is 65 µM in the test on MCF7 breast and greater than 100 µM in the test with SNB-75 CNS.
In the case of `O=C1c2ccccc2OCC12OC21C=CC(Cl)=CC1` (centres undefined), the TGI is 17.5 µM with SR leukemia; greater than 100 µM with SF-539 CNS; 50.9 µM in the test on MDA-MB-231 breast; 42.2 µM in the test with HCC-2998 colon; greater than 100 µM with ACHN renal; greater than 100 µM in the test with MCF7 breast. The same compound returned a TGI in the test with BT-549 breast of 83.7 µM.
Turning to `N#Cc1cc2c(cc1Cl)Sc1nnc(Nc3ccccc3)n1S2(=O)=O`, the TGI in the test on SR leukemia came to 0.696 µM; with SF-539 CNS, 4.41 µM; in the test with SF-295 CNS, 9.2 µM; with T-47D breast it was 13.3 µM; in the test on MDA-MB-231 breast it was 4.7 µM; in the test on HCC-2998 colon, 3 µM. Besides, the TGI was 3.32 µM with ACHN renal, greater than 40.4 µM with MCF7 breast, 10.7 µM in the test on SNB-75 CNS and 8.12 µM in the test with BT-549 breast.
As for `CCCn1cnc2c(SCc3ccc(Cl)cc3)nc(N)nc21`, the TGI in the test with SR leukemia is 34.8 µM; with SF-295 CNS, 45.9 µM; in the test with T-47D breast, greater than 100 µM; with MDA-MB-231 breast, 60.1 µM; in the test on HCC-2998 colon, 52.5 µM; in the test on ACHN renal it was 33.8 µM. The TGI with MCF7 breast was greater than 100 µM; with SNB-75 CNS, 88.7 µM; with BT-549 breast, greater than 100 µM.
As for `C/C(=N\NC(=S)N1CCCC1)c1nc2ncccc2[nH]1`, the TGI in the test on SR leukemia was greater than 100 µM; in the test with SF-539 CNS, 0.523 µM; in the test with SF-295 CNS, 22.6 µM; with T-47D breast, greater than 100 µM; with MDA-MB-231 breast it was greater than 100 µM; with HCC-2998 colon, greater than 100 µM. For the same compound, the TGI was 11.4 µM in the test on ACHN renal, 13.4 µM with MCF7 breast, greater than 100 µM in the test on SNB-75 CNS and 13 µM in the test with BT-549 breast.
As to `Cc1ccc(CSC(N)=Nc2ccccc2)cc1C`, the TGI was 55.8 µM in the test with SR leukemia; 53.1 µM in the test with SF-539 CNS; greater than 100 µM with SF-295 CNS; 45 µM with T-47D breast; 33.6 µM in the test on MDA-MB-231 breast; greater than 100 µM in the test on ACHN renal. Moreover, the TGI with MCF7 breast is 37.9 µM; in the test on SNB-75 CNS it was 63.9 µM; with BT-549 breast it was 50.8 µM.
On to `COc1ccc(C2COc3c(ccc(O)c3C)C2)cc1OC` (centres undefined), for which the TGI in the test with SF-539 CNS was 197 µM; in the test on SF-295 CNS, greater than 176 µM; in the test on HCC-2998 colon it was 121 µM; in the test with MCF7 breast, greater than 200 µM; with SNB-75 CNS it was 110 µM.
In the case of `CCOC(=O)c1c(OCC)[nH]c(=O)c(C(c2cccs2)c2c(O)c(C(=O)OCC)c(OCC)[nH]c2=O)c1O`, the TGI in the test with SF-539 CNS worked out at 28.5 µM; in the test on SF-295 CNS, 49.6 µM; in the test on T-47D breast, 17 µM; with MDA-MB-231 breast it was 30.1 µM; with HCC-2998 colon, 35 µM; in the test on ACHN renal, 25.4 µM. For the same compound, the TGI in the test on MCF7 breast is 53.9 µM; in the test with SNB-75 CNS, 9.72 µM; with BT-549 breast, 22.7 µM.
Take `Cc1nc2ccc(S(=O)(=O)Nc3nccs3)cc2c(=O)n1NS(=O)(=O)c1nccs1`: the TGI in the test with SF-539 CNS, in the test on SF-295 CNS, in the test with T-47D breast, in the test with MDA-MB-231 breast, with HCC-2998 colon and in the test on ACHN renal was greater than 100 µM in each case. For the same compound, the TGI with MCF7 breast, with SNB-75 CNS and in the test on BT-549 breast was greater than 100 µM throughout.
`COC(=O)C1=C(OC)[C@H]2C#C/C=C\C#C[C@@H]3Nc4c(cc(O)c5c4C(=O)c4ccccc4C5=O)[C@]24O[C@@]34[C@H]1C`: the TGI is less than 0.01 µM in the test on SR leukemia; less than 0.01 µM in the test on SF-539 CNS; less than 0.01 µM with SF-295 CNS; 0.0179 µM in the test with MDA-MB-231 breast; less than 0.0135 µM in the test on HCC-2998 colon; less than 0.01 µM in the test on ACHN renal. The TGI in the test with MCF7 breast is 0.126 µM; with SNB-75 CNS, less than 0.01 µM; in the test on BT-549 breast, less than 0.0339 µM.
In the case of `COc1ccc(CNc2nc(NC3CCCCC3)nc(NC3CCCCC3)n2)cc1`, the TGI in the test on SF-539 CNS is greater than 100 µM; with SF-295 CNS it was greater than 100 µM; in the test with T-47D breast, 44 µM; in the test on MDA-MB-231 breast it was 20.1 µM; with ACHN renal it was greater than 100 µM; in the test on MCF7 breast it was 18.8 µM. In addition, the TGI in the test on SNB-75 CNS and in the test with BT-549 breast was greater than 100 µM throughout.
For `CN(C)CCCNc1ccc2ncn3c4ccc(O)cc4c(=O)c1c23`, the TGI is 1.55 µM in the test on SR leukemia; 15.7 µM in the test with SF-539 CNS; 15.6 µM in the test on SF-295 CNS; 30.5 µM with T-47D breast; 21.7 µM with MDA-MB-231 breast; 18.1 µM in the test on HCC-2998 colon. For the same compound, the TGI with ACHN renal was found to be 4.04 µM; in the test with MCF7 breast, 1.27 µM; in the test with SNB-75 CNS it was 11.7 µM; in the test with BT-549 breast, 31.9 µM.
As to `O=C(CBr)c1ccc2cc(Br)c3ccccc3c2c1`, the TGI in the test on SR leukemia is 46.3 µM; in the test with SF-539 CNS, 41.7 µM; with SF-295 CNS it was 56.7 µM; in the test with MDA-MB-231 breast, 51.2 µM; in the test on HCC-2998 colon, greater than 100 µM; in the test on ACHN renal it was greater than 100 µM. For the same compound, the TGI in the test on MCF7 breast came out at 73.8 µM; with SNB-75 CNS, 72.8 µM; in the test on BT-549 breast it was 34 µM.
For the compound `C[n+]1c2ccccc2c(NC(CCCN=C(N)N)C(=O)O)c2ccccc21` (centres undefined), the TGI in the test on SR leukemia, with SF-539 CNS, with SF-295 CNS, in the test with HCC-2998 colon, in the test with ACHN renal and in the test with SNB-75 CNS was greater than 100 µM throughout.
Take `O=C(N[C@@H](Cc1coc2ccccc12)B(O)O)[C@@H]1C[C@H]2CC[C@@H]1O2`: the GI50 with SR leukemia is 1.26 µM; in the test with SF-539 CNS it was 1.72 µM; in the test with SF-295 CNS, 3.93 µM; in the test on T-47D breast, 2.77 µM; with MDA-MB-231 breast it was 11.7 µM; in the test with HCC-2998 colon, 5.11 µM. For the same compound, the GI50 with ACHN renal was 1.93 µM; in the test with MCF7 breast it was 3.25 µM; in the test on SNB-75 CNS it was 2.78 µM; with BT-549 breast it was 3.07 µM. Moreover, the TGI is greater than 100 µM with SR leukemia; 6.12 µM in the test with SF-539 CNS; 17.6 µM in the test on SF-295 CNS; greater than 100 µM with T-47D breast; greater than 100 µM in the test on MDA-MB-231 breast; 21.1 µM with HCC-2998 colon. In addition, the TGI in the test on ACHN renal was greater than 100 µM; in the test with MCF7 breast it was greater than 100 µM; in the test on SNB-75 CNS, 38.2 µM; in the test with BT-549 breast, 42.2 µM.
Regarding `COc1ccc(/C=N/n2cnc3c(c2=O)SC(=C(C#N)C#N)N3c2ccccc2)cc1`, the TGI in the test on SR leukemia is greater than 100 µM; with SF-539 CNS, greater than 100 µM; with SF-295 CNS, greater than 100 µM; in the test on HCC-2998 colon, greater than 100 µM; in the test on ACHN renal, greater than 100 µM; in the test on SNB-75 CNS, 72.4 µM.
As to `CCC1CC(O)c2c(O)c3c(c(O)c2C1O)C(=O)c1cccc(O)c1C3=O` (centres undefined) (tested in a mixture with another compound), the TGI in the test on SR leukemia is 0.0605 µM and 0.0406 µM; with SF-539 CNS, 0.0957 µM and 0.0893 µM; in the test with T-47D breast, 0.18 µM and 0.0352 µM; in the test on MDA-MB-231 breast, 0.164 µM and 0.404 µM; in the test on HCC-2998 colon it was 0.0478 µM and 0.0298 µM; in the test with MCF7 breast, 6.04 µM. Besides, the TGI is 0.049 µM and 0.0426 µM with SNB-75 CNS; 0.0704 µM in the test with BT-549 breast. The GI50 with MDA-MB-231 breast is 0.0118 µM.
For the compound `C=CCCC1(C)CCCNC1=S` (centres undefined), the TGI in the test with SR leukemia, with SF-539 CNS, in the test on SF-295 CNS, in the test with HCC-2998 colon, in the test with ACHN renal and with SNB-75 CNS was greater than 100 µM throughout.
